Laboratory results published in the supplement of paper PMC10307832.

Legend:
Experiment in all cases: relative viability (nuclei count vs DMSO), 5 days (fraction); higher = more cells survive
[1] = compound: C#Cc1cccc(Nc2ncnc3cc(OC)c(OCCCCCCC(=O)NO)cc23)c1 [CUDC-101] + CC(=O)Nc1cccc(-n2c(=O)n(C3CC3)c(=O)c3c(Nc4ccc(I)cc4F)n(C)c(=O)c(C)c32)c1 [Trametinib] (partner 0.02 µM)
Outline: (§1)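 A single step with final 0.05% Triton X-100, 1% formaldehyde and 1 ug/ml Hoechst fixed the cells and stained nuclei 5 days after treatment. Lung cancer cell lines in 1536-well plates had been treated by pin tool the day after seeding with one drug alone or a fixed anchor-drug dose plus five library-drug doses (not always all listed) in √10 steps, and nuclei were counted on 4× images. Relative viability is the ratio of nuclei in treated wells to nuclei in vehicle wells, taken as the median of duplicate plates.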

[2] = compound: C#Cc1cccc(Nc2ncnc3cc(OC)c(OCCCCCCC(=O)NO)cc23)c1 [CUDC-101] + CS(=O)(=O)N1CCN(Cc2cc3nc(-c4cccc5[nH]ncc45)nc(N4CCOCC4)c3s2)CC1 [Pictilisib] (partner 1 µM)
Outline: as §1

[3] = compound: C1=CC=C2C(=C1)N=C(S2)C(C#N)C3=NC(=NC=C3)NCCC4=CN=CC=C4 + Nc1ncn([C@H]2C[C@H](O)[C@@H](CO)O2)c(=O)n1 [Decitabine] (partner 2 µM)
Outline: as §1

[4] = compound: COc1cc2/c(=N/c3ccc(Br)cc3F)nc[nH]c2cc1OCC1CCN(C)CC1 [Vandetanib] + CS(=O)(=O)N1CCN(Cc2cc3nc(-c4cccc5[nH]ncc45)nc(N4CCOCC4)c3s2)CC1 [Pictilisib] (partner 1 µM)
Outline: as §1

Cell Line	relative viability ([1]; first compound 0.01 µM)	relative viability ([1]; first compound 0.03162 µM)	relative viability ([1]; first compound 0.1 µM)	relative viability ([1]; first compound 0.3162 µM)	relative viability ([1]; first compound 1 µM)	relative viability ([2]; first compound 0.01 µM)	relative viability ([2]; first compound 0.03162 µM)	relative viability ([2]; first compound 0.1 µM)	relative viability ([2]; first compound 0.3162 µM)	relative viability ([2]; first compound 1 µM)	relative viability ([3]; first compound 0.005 µM)	relative viability ([3]; first compound 0.01581 µM)	relative viability ([3]; first compound 0.05 µM)	relative viability ([3]; first compound 0.1581 µM)	relative viability ([3]; first compound 0.5 µM)	relative viability ([4]; first compound 0.02 µM)	relative viability ([4]; first compound 0.06325 µM)	relative viability ([4]; first compound 0.2 µM)	relative viability ([4]; first compound 0.6325 µM)	relative viability ([4]; first compound 2 µM)
NCI-H1651	0.863	0.786	0.806	0.845	0.8	0.55	0.595	0.689	0.605	0.328	0.546	0.557	0.684	0.711	0.603	0.621	0.519	0.478	0.528	0.374
NCI-H1666	0.842	0.931	0.818	0.911	0.831	0.395	0.397	0.322	0.394	0.271	0.72	0.696	0.8	0.738	0.798	0.343	0.446	0.498	0.451	0.322
NCI-H1734	0.694	0.594	0.761	0.786	0.523	0.499	0.488	0.452	0.437	0.285	0.453	0.49	0.522	0.495	0.488	0.43	0.435	0.479	0.449	0.43
NCI-H1755	0.794	0.761	0.784	0.792	0.812	0.406	0.409	0.444	0.41	0.264	0.673	0.789	0.683	0.75	0.7	0.427	0.381	0.254	0.426	0.369
NCI-H1792	0.607	0.322	0.439	0.453	0.359	0.361	0.226	0.28	0.316	0.155		0.736	0.638	0.675	0.388	0.273	0.288	0.303	0.318	0.235
NCI-H1793	0.331	0.347	0.349	0.427	0.44	0.302	0.43	0.248	0.375	0.273		0.521	0.424	0.538	0.465	0.338	0.309	0.27	0.341	0.379
NCI-H1915	0.308	0.287	0.305	0.314	0.273	1	0.907	0.882	0.924	0.531		0.259	0.239	0.264	0.27	0.858	0.901	0.946	0.944	0.888
NCI-H1944	0.375	0.422	0.415	0.388	0.373	0.319	0.311	0.32	0.324	0.298	0.404	0.497	0.412	0.433	0.388	0.328	0.345	0.339	0.345	0.334
